From patent US20230220346A1, “BIOLOGICALLY SYNTHESIZED HYDROXYAPATITE FOR BONE REGENERATION AND TISSUE ENGINEERING” (BIOVENTURES, LLC, priority 2019, published 2023)

Assays:
[1] = test system: Saos-2 cell line; experiment: Alizarin Red S (ARS) biomineralization assay in Saos-2; assay type: cell-based, human; details: for biomineralization (Alizarin Red S staining): MEMα/10% FBS plus the supplement only, no ALP added, 7 days
Experimental: (§1) Biomineralization assays and Alizarin Red S staining: All human and mouse cell lines and human peripheral blood mononuclear cells (MNCs) were maintained in MEMα/10% FBS with penicillin/streptomycin and glutamine in a 37° C. humidified incubator with 5% CO2. […] The medium was replaced after 4 days. Alizarin Red S staining was performed at room temperature by removing the culture medium, washing the cells twice with 1×PBS (pH 7.4), fixing the cells in 10% neutral buffered formalin (Richard-Allan Scientific, Kalamazoo, Mich., USA) for 30 min, rinsing twice with Milli-Q water, staining with Alizarin Red S for 30 min, and destaining twice in Milli-Q water. A ZEISS inverted fluorescence/brightfield microscope equipped with an Infinity 3 digital camera and software system was used for imaging.

[2] = test system: MG-63 cell line; experiment: Alizarin Red S (ARS) biomineralization assay in MG-63; assay type: cell-based, human; details: MEMα/10% FBS plus the supplement only, no ALP added, 7 days
Experimental: as §1

[3] = test system: human blood mononuclear cells (MNCs); experiment: Alizarin Red S biomineralization assay in human blood mononuclear cells; assay type: cell-based; details: MEMα/10% FBS with αGP alone or CIP alone (the other missing), 7 days
Experimental: as §1
Coating cell culture plate with Collagen Type I, rat tail for mineralization assays: To coat a 48-well plate with Collagen Type I at 5 μg/cm^2, the stock solution was diluted to 25 μg/mL in 17.5 mM of acetic acid and aliquoted […] into each well. After incubating at room temperature for one hour, the Collagen Type I solution was removed. Each well was rinsed with 1×PBS (pH 7.4) and air-dried at room temperature. Human blood MNCs were suspended in the conditioned media and distributed into each well (1×10^5 cell/well) prior to a 7-day incubation. […]

[4] = test system: MG-63 and Saos-2 cell lines; experiment: Alizarin Red S biomineralization assay: phosphate source comparison, titration, ascorbic acid (FIG. 1A, 1C, 1E-G); assay type: cell-based, human; details: for dose dependence of biomineralization (titration assays): FIG. 1E-G; for biomineralization with the substance as organic phosphate source: substituted for βGP, 2 mM, with ALP, FIG. 1B,C
Experimental: as §1

| Structure (SMILES) | biomineralization (Alizarin Red S staining) [1] | biomineralization (Alizarin Red S staining) [2] | dose dependence of biomineralization (titration assays) [4] | biomineralization with the substance as organic phosphate source [4] | other results |
| --- | --- | --- | --- | --- | --- |
| O=P([O-])([O-])OC(CO)CO.[Na+].[Na+] [βGP, disodium β-glycerophosphate] | could mineralize | could not |  |  |  |
| O.O=P([O-])([O-])OCC(O)CO.[Na+].[Na+] (stereo not drawn) [αGP, Disodium α-glycerophosphate hydrate] |  |  | depended on the doses |  | biomineralization (Alizarin Red S staining) [3]: did not occur; relative efficiency of phosphoester salts in eliciting biomineralization ([4]; compared to βGP and PEP, FIG. 1C): most efficient; incubation time until biomineralization occurred at cytoplasmic membrane and cytosol ([1]; MEMα/10% FBS with 2 mM αGP): ≤ 24 h |
| O=C1O[C@H]([C@@H](O)CO)C(O)=C1O [Vit. C, Ascorbic acid] | No mineralization | No mineralization |  |  | need of ascorbic acid for biomineralization ([4]; MEMα with or without ascorbic acid, FIG. 1A and FIG. 8): unnecessary or even deleterious |
| O=P(O)(O)OCC(O)CO (stereo not drawn) [NSC 9231, glycerophosphoric acid] |  |  |  | did not occur |  |
| NCCC(O)(P(=O)(O)O)P(=O)(O)O [pamidronate] |  |  |  | did not occur |  |
| [Ca+2] [Ca^2+, calcium ions] |  |  | depended on the doses |  |  |
